The record followed here is ChEMBL document CHEMBL5260848, “Recent advancements in the development of bioactive pyrazoline derivatives” (Eur J Med Chem, 2020).

The test system of assay [1] is Escherichia coli. The assay is described as follows: Antibacterial activity against Escherichia coli incubated for 24 hrs by disc diffusion method. Type of assay: functional.
The test system of assay [2] is Mycobacterium tuberculosis. As to the kind of experiment: microbe, parasite or virus in culture. Conditions: 120 h.
Assay [3] relates to Bacillus subtilis. The assay is described as follows: microbe, parasite or virus in culture. Conditions: 24 h.
Assay [4] has as its system Staphylococcus aureus. As to the kind of experiment: microbe, parasite or virus in culture. Conditions: 24 h.
In a further assay the test system is Aspergillus fumigatus. The assay is described as follows: Antifungal activity against Aspergillus fumigatus incubated for 24 hrs by disc diffusion method. The assay is classed as functional. (In general: In agar diffusion tests the substance spreads into inoculated agar from a disc or well.)
Assay [5] concerns Mycobacterium tuberculosis. The assay is classed as functional. Conditions: time 5 day.
In assay [6] the test system is Mycobacterium tuberculosis. The assay is classed as functional. Conditions: time 5 day. This is another data set of the same source.
The subject of assay [7] is Mycobacterium tuberculosis. Type of assay: functional. Conditions: time 5 day. This is another data set of the same source.
In the next assay the test system is Aspergillus flavus. As to the kind of experiment: Antifungal activity against Aspergillus flavus incubated for 24 hrs by disc diffusion method. Type of assay: functional.
The test system of assay [8] is Aspergillus niger. As to the kind of experiment: Antifungal activity against Aspergillus niger incubated for 24 hrs by disc diffusion method. The assay is classed as functional.
For assay [9], the system named is Pseudomonas aeruginosa. The assay is described as follows: microbe, parasite or virus in culture. Conditions: 24 h.
For assay [10], the system named is Candida albicans. As to the kind of experiment: microbe, parasite or virus in culture. Conditions: 24 h.
Assay [11] in a line: Antioxidant activity assessed as DPPH radical scavenging activity. The assay is classed as functional.
Assay [12] deals with Staphylococcus aureus. As to the kind of experiment: Antibacterial activity against Staphylococcus aureus by agar dilution method. Type of assay: functional.
The test system of assay [13] is Bacillus subtilis. As to the kind of experiment: Potency index, ratio of ampicillin MIC to compound MIC for Bacillus subtilis by agar dilution method. Type of assay: functional. For orientation: In agar dilution the substance is mixed into plates at graded concentrations.
Assay [14] deals with Bacillus subtilis. The assay is described as follows: Antibacterial activity against Bacillus subtilis by agar dilution method. The assay is classed as functional.
The test system of assay [15] is Aspergillus niger. As to the kind of experiment: Antifungal activity against Aspergillus niger by agar dilution method. Type of assay: functional.
Assay [16] deals with Escherichia coli. As to the kind of experiment: Antibacterial activity against Escherichia coli by agar dilution method. The assay is classed as functional.
Assay [17] has as its system Pseudomonas aeruginosa. The assay is described as follows: Antibacterial activity against Pseudomonas aeruginosa by agar dilution method. The assay is classed as functional.
Assay [18] concerns Candida albicans. The assay is described as follows: Antifungal activity against Candida albicans by agar dilution method. Type of assay: functional.
The subject of assay [19] is Staphylococcus aureus. The assay is described as follows: Potency index, ratio of ampicillin MIC to compound MIC for Staphylococcus aureus by agar dilution method. Type of assay: functional.
For assay [20], the system named is Escherichia coli. The assay is described as follows: Potency index, ratio of ampicillin MIC to compound MIC for Escherichia coli by agar dilution method. The assay is classed as functional.
In assay [21] the test system is MCF7. As to the kind of experiment: Antitumor activity in human MCF7 cells xenografted in mouse model assessed as tumor volume measured after 12 days relative to control. Conditions: time 12 day. The assay is classed as functional. (In general: A xenograft is tissue or cells of one species grown in another, often human tumour cells in immunodeficient mice.)
In assay [22] the test system is MCF7. As to the kind of experiment: Cytotoxicity against human MCF7 cells. Type of assay: functional, cell-based.
For assay [23], the species on record is Mus musculus. As to the kind of experiment: Antidepressant activity in Swiss albino mouse assessed as decrease in immobility time by forced swimming test. The assay is classed as functional.
In assay [24] the test system is Mus musculus. As to the kind of experiment: Antidepressant activity in Swiss albino mouse assessed as decrease in duration of immobility at 100 mg/kg, po by forced swimming test relative to control. On the set-up: scale not given: the % may be the effect or the level left. The assay is classed as functional.
The species named for assay [25] is Mus musculus. As to the kind of experiment: Antidepressant activity in Swiss albino mouse assessed as decrease in immobility time by tail suspension test. Type of assay: functional.
For assay [26], the species on record is Mus musculus. As to the kind of experiment: Antidepressant activity in Swiss albino mouse assessed as decrease in duration of immobility by tail suspension test relative to control. The assay is classed as functional. On the set-up: scale not given: the % may be the effect or the level left.
Assay [27] has as its system Escherichia coli. The assay is described as follows: microbe, parasite or virus in culture.
The test system of another assay is Klebsiella pneumoniae. As to the kind of experiment: Antimicrobial activity against Klebsiella pneumoniae. The assay is classed as functional.
For assay [28], the system named is Staphylococcus aureus. The assay is described as follows: microbe, parasite or virus in culture.
The species entered for assay [29] is Mus musculus. As to the kind of experiment: Antianxiety activity in mouse assessed as increase in number of entries in different arms. The assay is classed as functional.
The species entered for assay [30] is Mus musculus. The assay is described as follows: Antidepressant activity in mouse assessed as […] by forced swimming test. The assay is classed as functional.
The species named for assay [31] is Mus musculus. The assay is described as follows: Antidepressant activity in mouse assessed as […] by tail suspension test. Type of assay: functional.
Another assay concerns HepG2. As to the kind of experiment: Cytotoxicity against human HepG2 cells by SRB assay. Type of assay: functional.
The subject of a further assay is HeLa. The assay is described as follows: Cytotoxicity against human HeLa cells by SRB assay. Type of assay: functional.
For the next assay, the system named is A549. As to the kind of experiment: Cytotoxicity against human A549 cells by SRB assay. The assay is classed as functional.
A further assay deals with DU-145. As to the kind of experiment: Cytotoxicity against human DU-145 cells by SRB assay. Type of assay: functional.
In assay [32] the test system is UO-31. The assay is described as follows: Cytotoxicity against human UO-31 cells by SRB method. The assay is classed as functional. Conditions: read-out: LC50 (the source's name).
Assay [33] can be described thus: Cytotoxicity against human Panel NCI-58 (58 carcinoma cell lines) cells by SRB method. The assay is classed as functional. Conditions: read-out: LC50 (the source's name).
A short description of assay [34]: Growth inhibition of human Panel NCI-58 (58 carcinoma cell lines) cells by SRB method. The assay is classed as functional.
For assay [35], the system named is UO-31. As to the kind of experiment: Growth inhibition of human UO-31 cells by SRB method. The assay is classed as functional.

Converted amounts (≈) assume the structure as drawn.

As to `O=C(NNS(=O)(=O)c1ccccc1)N1N=C(c2ccccc2)CC1c1ccccc1` (centres undefined), the MIC in the assay with Escherichia coli [1] is 25 µg/mL (≈ 59.5 µM); in assay [2], 0.8 µg/mL (≈ 1.9 µM); with Bacillus subtilis [3] it was 25 µg/mL (≈ 59.5 µM); against Staphylococcus aureus [4] it was 25 µg/mL (≈ 59.5 µM); with Aspergillus fumigatus it was 25 µg/mL (≈ 59.5 µM); in the assay on Aspergillus flavus, 25 µg/mL (≈ 59.5 µM). Moreover, the MIC in the assay with Aspergillus niger [8], against Pseudomonas aeruginosa [9] and in the assay with Candida albicans [10] was 25 µg/mL (≈ 59.5 µM) each time. Besides, the Ratio in assay [5] came to 3.9; in assay [6] it was 3.9; in assay [7], 7.81.
For the compound `COc1cccc2cc(/C=C/C(=O)c3cc(Br)ccc3O)c3nnnn3c12`, the IC50 (as a rule, the concentration needed to halve the response being measured) in assay [11] stood at 22.4 µg/mL (≈ 52.7 µM). Also, the MIC against Staphylococcus aureus [12] came out at 50 µg/mL (≈ 118 µM); against Bacillus subtilis [14], 50 µg/mL (≈ 118 µM); in the assay with Aspergillus niger [15], 25 µg/mL (≈ 58.8 µM); against Escherichia coli [16], 50 µg/mL (≈ 118 µM); in the assay with Pseudomonas aeruginosa [17] it was 25 µg/mL (≈ 58.8 µM); against Candida albicans [18] it was 25 µg/mL (≈ 58.8 µM). Besides, the Ratio is listed as 5 in the assay with Bacillus subtilis [13], 5 in the assay on Staphylococcus aureus [19] and 2 with Escherichia coli [20].
`CC(=O)Oc1ccc2c(c1)CC[C@@H]1[C@@H]2CC[C@]2(C)C3=NN(c4ccccc4)C(c4cccs4)C3C[C@@H]12` (some centres undefined): the Activity in the assay on MCF7 [21] stood at 87%. The same compound registered an IC50 with MCF7 [22] of 43 nM.
For `COc1cc(C2CC(c3ccc(-c4cc(F)cc(F)c4)nc3C)=NN2)cc(OC)c1OC` (centres undefined), the values for the Time in the assay filed under Mus musculus [23] and in the assay filed under Mus musculus [25] were 66.67 s and 70.33 s, respectively. Also, the Activity in the assay with Mus musculus [24] was found to be 66.58%; in the assay filed under Mus musculus [26], 64.56%.
As to `CCOC(=O)C1N=NN(CC(=O)N2N=C(c3ccccc3)CC2c2cccs2)C1C(=O)OCC` (centres undefined), the MIC in the assay on Escherichia coli [27] came out at 3.9 µg/mL (≈ 8.07 µM); against Klebsiella pneumoniae it was 15 µg/mL (≈ 31 µM); against Staphylococcus aureus [28], 3.9 µg/mL (≈ 8.07 µM).
Consider `CN(C)CCCN1c2ccccc2CCc2ccccc21` [IMIPRAMINE], for which the Activity is reported as -9.33 in the assay filed under Mus musculus [29], 62.12% in the assay on Mus musculus [24] and 61.96% in the assay listed under Mus musculus [26]. Also, the Time in the assay filed under Mus musculus [30] and in the assay filed under Mus musculus [31] was 29.33 s in each case.
As for `COc1ccc(C2CC(c3cc(OC)c(OC)c(OC)c3)=NN2C(C)=O)cc1OCc1cn(Cc2ccc(F)c(Cl)c2)nn1` (centres undefined), the GI50 in the assay with HepG2, in the assay on HeLa, with A549 and in the assay with DU-145 was 7 µM throughout.
As to `O=C(/C=C/c1ccc(C(F)(F)F)cc1)c1ccc(Nc2nc(NCCO)nc(NCCO)n2)cc1`, the CC50 with UO-31 [32] is 19.5 µM; in [33] it was 5.15 µM. In addition, the GI50 (in general, the concentration giving 50% growth inhibition) is 569 nM in [34] and 1500 nM with UO-31 [35].
